In patent US8629240B2, “Peptide ligands for clusterin and uses thereof” (National Research Council of Canada, priority 2009, dated 2014):
Ends that are not written are not given here. Peptide text beside a SMILES is read from it. Alexa Fluor 680 C2‑maleimide = near-infrared dye maleimide, coupled by thioether to the C-terminal Cys; DyLight 680 = DyLight 680 fluorophore

Legend:
[1] = molecular target: T1, rh-clusterin (Homo sapiens, UniProt P10909); assay: STD-NMR binding of synthetic peptides to rh-clusterin; details: ~1:30 protein:peptide, 298K
T1 construct: made in house; host or cells: HEK-293 cells
T1 sequence (P10909 23-227 limits assumed): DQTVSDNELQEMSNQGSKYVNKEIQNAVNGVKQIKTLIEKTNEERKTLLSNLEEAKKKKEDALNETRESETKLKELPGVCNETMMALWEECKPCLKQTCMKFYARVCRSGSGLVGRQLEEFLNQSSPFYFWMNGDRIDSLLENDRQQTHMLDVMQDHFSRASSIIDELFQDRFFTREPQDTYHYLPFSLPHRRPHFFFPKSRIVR
T1 sequence (P10909 228-449 limits assumed): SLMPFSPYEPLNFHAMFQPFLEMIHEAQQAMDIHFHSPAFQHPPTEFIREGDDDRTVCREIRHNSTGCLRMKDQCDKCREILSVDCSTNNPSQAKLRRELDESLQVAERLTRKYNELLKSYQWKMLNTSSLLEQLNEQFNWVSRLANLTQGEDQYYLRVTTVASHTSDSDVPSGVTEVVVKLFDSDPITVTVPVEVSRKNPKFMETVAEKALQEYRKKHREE
Procedure: To confirm direct binding of the peptides of Example 1 to clusterin, the interaction of the synthetic peptides of Example 2 with clusterin was tested using Nuclear Magnetic Resonance Saturation Transfer Difference (STD-NMR; Mayer & Meyer, 2001)
NMR samples were prepared by dissolving 0.15 mM of peptides in 50 mM sodium phosphate buffer, 0.2 mM EDTA, pH 6.5. rh-clusterin (˜1 mg/ml) in 5 mM sodium phosphate buffer, 0.02 mM EDTA, pH 7.4, was added to ˜1:30 protein:peptide ratio.
All NMR experiments were performed at 298K on a Bruker Avance800™ NMR spectrometer equipped with a 5 mm triple-resonance probe with three-axis gradients. Saturation transfer difference (STD) spectra was recorded using WATERGATE version of STD pulse sequence (35) with a 3 s selective saturation pulse applied in the relaxation delay and a 20 ms spinlock pulse with a field strength of 12.25 kHz. The saturation pulse was implemented using a pulse train of 49 ms Gaussian-shaped selective pulse and 1 ms interpulse delay. Each Gaussian-shaped pulse had 1000 points with a 1% truncation and was applied with a field strength of 75.9 Hz. STD spectra were recorded with a spectral width of 16025.64 Hz and 32 K data points. Time domain signals were accumulated with 1024 and 4096 scans for the free and complexed sample, respectively. NMR data were processed using Bruker Xwinnmr 2.6. An exponential weighting function of 7 Hz was applied prior to Fourier transformation and polynomial baseline correction.
NMR signals of peptide P3378 and rh-clusterin were severely overlapped, making it impossible to apply the above saturation pulse exclusively on rh-clusterin resonances without disturbing those of the peptide. In order to identify the binding interactions in the P3378-rh-clusterin complex, a new experimental scheme was implemented by applying the on-resonance saturation pulse at methyl resonances (0.912 ppm) and the off-resonance irradiation at −7.799 ppm (referenced H2O to 4.700 ppm). […]

[2] = molecular target: T2, rhCLU (recombinant human clusterin) (Homo sapiens, UniProt P10909); assay: SPR biosensor analysis, rhCLU flowed over immobilized peptide; format: binding; details: for sequence dependence of the interaction with clusterin: concluded from scrambled peptides; for koff / kon: 25° C.; for binding of rhCLU to immobilized randomized peptide (Scatchard plot): randomized sequence control peptides
T2 construct: made in house; host or cells: HEK-293 cells
T2 sequence (P10909 23-227 limits assumed): as the sequence (P10909 23-227 limits assumed) above
T2 sequence (P10909 228-449 limits assumed): as the sequence (P10909 228-449 limits assumed) above
Excerpt: Peptides were immobilized on research-grade CM5 sensor chips by a maleimide coupling method. CM5 sensor chips (research grade) and EDC were purchased from Biosensor AB (Uppsala, Sweden). This thiol coupling generates a stable thioether bond between reactive maleimide groups on the sensor chip surface and the thiol groups of the peptides. A heterobifunctional reagent, SMCC-hydrazide (4-[N-maleimidomethyl]cyclohexane-1 carboxylhydrazide; 99.5% pure; purchased from Molecular Biosciences Inc. (Boulder, Colo.)), was used to introduce reactive maleimido groups to the sensor surface. Immobilization was performed at 25° C. at a flow rate of 5 μL/min. A continuous flow of the HBS-EP buffer (20 mM HEPES, 150 mM NaCl, 3.4 mM EDTA and 0.05% Tween™-20 at pH 7.4) was maintained over the sensor surface. The carboxylated dextran matrix on the sensor surface was activated by an injection of 50 μL of a freshly mixed solution containing 172 μL of 1.2 mM […] (EDC) in 100 mM MES buffer at pH 5.00, and 28 μL of 17.8 mM SMCC-hydrazide in 40% DMF. The ratio of the SMCC:EDC was 2.5:1. Peptide-coupled surfaces were generated by injecting peptides (30-100 μg/ml) in 100 mM MES buffer (at pH 5.0). The amount of peptide immobilized on the activated surface was controlled by altering the contact time with the peptide solution and was between approximately 400 and 500 RU, or 400-500 pg peptide/mm^2. The immobilization procedure was completed by a 50 μL injection of 50 mM cysteine in 1 M sodium chloride and 0.1M sodium acetate (pH 4) to quench excess active maleimide groups.
Protein-peptide interactions were followed using a BIAcore 3000 instrument (Biosensor AB, Uppsala, Sweden). All binding experiments were carried out at 25° C. under a continuous flow of the HBS-EP buffer (20 mM HEPES, 150 mM NaCl, 3.4 mM EDTA and 0.05% Tween-200) at pH 7.4 over the sensor surface at a flow rate of 20 μL/min. Different concentrations of rh-clusterin in the HBS-EP buffer were injected over the peptide-derivatized sensor chips. Dissociation was monitored for up to 300 s post-injection. The surfaces were fully regenerated by 15 s injection of an HBS-EP buffer solution containing 5 mM NaOH. […] Reference responses from control flow cells, containing unmodified dextran surfaces, were subtracted from peptide-containing flow cells, for each analyte injection using the BiaEvaluation software version 3.0 (Biacore AB, Uppsala, Sweden).
The resulting sensorgrams were used for kinetic rate determination through global fitting of the experimental data to a simple 1:1 Langmuir binding model. […] Affinity data (KD) from the binding studies were obtained by plotting the response in RU at the steady state, Req, versus the concentration of clusterin, C, and by fitting these curves to a one-site binding model, Req=C*xRmax/(C+KD) where Rmax is the value in RU at saturation and Req is the observed optical change in RU at each given C.

[3] = molecular target: T3, extracellular domain of the Type II TGF-beta receptor (Homo sapiens, UniProt P37173); assay: SPR specificity test with Type II TGF-beta receptor extracellular domain; format: binding; details: receptor 38 nM to 4.5 μM over immobilized peptide
T3 construct: the extracellular domain of the Type II TGF-beta receptor
T3 sequence (P37173 23-166 limits assumed): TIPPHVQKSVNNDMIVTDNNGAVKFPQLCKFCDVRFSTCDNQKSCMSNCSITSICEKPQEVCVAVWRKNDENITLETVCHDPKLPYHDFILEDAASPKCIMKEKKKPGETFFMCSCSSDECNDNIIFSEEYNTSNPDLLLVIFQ
Procedure: (§1) The specificity of the clusterin-peptide interactions was investigated using SPR biosensor analysis and proteins unrelated to clusterin. Immobilization of the peptides and other proteins on the sensor chips and the SPR experiments were conducted as described in Example 4.
FIG. 8 presents SPR biosensor sensorgrams showing the interaction of the extracellular domain of the Type II TGF-beta receptor (38 nM to 4.5 μM) with immobilized P3378 (500 RUs) (FIG. 8A) or P3375 (1200 RUs) (FIG. 8B).

[4] = molecular target: T4, epidermal growth factor ectodomain (EGFR-ED) (Homo sapiens, UniProt P00533); assay: SPR specificity test with EGFR ectodomain; format: binding; details: EGFR-ED 70 nM to 5.63 μM over immobilized peptide
T4 construct: the epidermal growth factor ectodomain (EGFR-ED)
T4 sequence (P00533 25-645 limits assumed): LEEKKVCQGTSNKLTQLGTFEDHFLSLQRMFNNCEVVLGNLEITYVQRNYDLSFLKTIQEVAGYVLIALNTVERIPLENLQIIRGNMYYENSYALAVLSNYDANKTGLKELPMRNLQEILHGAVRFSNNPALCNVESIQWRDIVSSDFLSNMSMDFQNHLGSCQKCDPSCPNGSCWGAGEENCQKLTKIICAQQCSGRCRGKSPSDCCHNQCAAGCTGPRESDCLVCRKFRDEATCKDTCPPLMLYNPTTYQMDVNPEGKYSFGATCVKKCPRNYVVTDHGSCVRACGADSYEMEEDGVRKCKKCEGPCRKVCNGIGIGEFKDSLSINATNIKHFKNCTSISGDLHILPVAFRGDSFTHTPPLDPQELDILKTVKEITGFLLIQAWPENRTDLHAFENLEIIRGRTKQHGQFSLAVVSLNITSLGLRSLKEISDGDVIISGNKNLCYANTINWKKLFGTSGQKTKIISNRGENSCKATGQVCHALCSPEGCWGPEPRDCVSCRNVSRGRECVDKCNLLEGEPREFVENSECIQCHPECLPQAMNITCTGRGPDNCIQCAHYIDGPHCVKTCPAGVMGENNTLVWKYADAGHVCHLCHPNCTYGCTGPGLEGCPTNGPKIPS
Procedure: as §1

[5] = tested on: 4T1 tumor; assay: In vivo blocking experiment with excess unlabeled peptide; parameters: species or system mouse
Procedure: To further validate the specificity of the in vivo targeting ability of the P3378-DL680 probe, a blocking experiment using an excess of unlabeled P3378 peptide was carried out. Mice received 25 nmoles of P3378-DL680 alone (n=1) or in combination with 5 μmoles unlabeled P3378 or P3378R peptide (both n=2) in 100 μL sterile saline. Animals in the control groups received 25 nmoles of P3378-DL680 with or without 5 μmoles of the unlabeled scrambled P3378R peptide, whereas the experimental animals were injected with 25 nmoles of P3378-DL680 in combination with 5 μmoles of unlabeled P3378 peptide. […] Furthermore, using the gated NIRF lifetime and the OptiView 3D reconstruction module we selected in each mouse the slice along the Z-axis that contained the highest concentration of P3378-DL680 and determined its relative concentration.

[6] = tested on: 4T1 tumor and organs (liver, spleen, pancreas, kidney, heart, lungs); assay: Confocal microscopy of probe distribution in 4T1 tumor and organs; format: in vivo, mouse
Procedure: Confocal microscopy was used to evaluate the distribution of the P3378-DL680 probe in the 4T1 tumor and various organs (liver, spleen, pancreas, kidney, heart, lungs), harvested 15 min post-injection. […] DAPI staining of the nuclei was used to visualize tissue morphology.

[7] = tested on: 4T1 tumor
Procedure: As a model system, 4T1 mouse mammary carcinoma cell line cells were used to generate tumors in syngeneic BALB/c mice. […] Six to eight weeks old female BALB/c mice were obtained from Charles River. […] A 50 μl 1:1 solution of sterile Matrigel and saline, or the same solution containing 4T1 mouse mammary tumor cells (5×10^6 cells), was injected subcutaneously into the right hind thigh of the animal. Clippers and Nair were used to remove hair from the injection site as well as the lower back and the left thigh of the animals prior to the Matrigel and tumor cell injections. When tumors measured ˜0.5 to 0.8 cm in diameter (6-8 days), the tumor-bearing mice were subjected to in vivo imaging.
Animals were imaged using the following procedures. Animals were anesthetized using isoflurane (3% in O2 at 2 L/min). Prior to the injection of the labeled peptides, animals were subjected to a full body scan to obtain a background fluorescence image. P3378-Alexa680 or P3378R-Alexa680 was administered (25 nmol in 100 μL sterile saline) via the tail vein using a 0.5-ml insulin syringe with a 27-gauge fixed needle. Immediately after, the animal was placed on the heated animals plate (39° C.) of the ART eXplore Optix MX2 imaging system (Advanced Research Technologies, Montreal, Canada). Laser power and counting time per pixel were optimized at 9.6 μW and 0.5 s, respectively. These values remained constant during the entire experiment. The raster scan interval was set at 1.5 mm and was held constant during the acquisition of each image. The data were recorded as Temporal Point-Spread Functions (TPSF), and fluorescence intensity and fluorescence lifetime maps were generated. All images were analyzed using the ART Optix OptiView™ software. Volume data and 3D images were reconstructed using the ART OptiView™ 3D Reconstruction Software Module. All animals were euthanized after the imaging experiments.
Animals were imaged in the ART Optix MX2 small animal imager using three approaches: • a. Mice were injected intravenously (i.v.) via the tail vein with either 5 nanomoles of P3378 peptide labeled with Alexa680, or P3378R peptide labeled with Alexa680; • b. Mice were injected intravenously (i.v.) via the tail vein with either 25 nanomoles of P3378 peptide labeled with Alexa680, or P3378R peptide labeled with Alexa680; • c.

[8] = global fit, one-to-one Langmuir binding model

## CC(C)C[C@H](NC(=O)[C@H](CCC(N)=O)NC(=O)[C@H](CO)NC(=O)[C@H](Cc1c[nH]c2ccccc12)NC(=O)[C@H](Cc1ccc(O)cc1)NC(=O)[C@@H](NC(=O)[C@@H](N)CC(N)=O)[C@@H](C)O)C(=O)N[C@@H](CC(C)C)C(=O)N[C@@H](Cc1c[nH]cn1)C(=O)N[C@@H](Cc1ccccc1)C(=O)N[C@@H](CCC(N)=O)C(=O)N[C@H](C(=O)N[C@@H](CO)C(=O)NCC(=O)N[C@@H](CO)C(=O)NCC(=O)N[C@@H](CS)C(=O)O)[C@@H](C)O [P3375]
[1]
  binding to clusterin by STD-NMR: confirmed
[2]
  sequence dependence of the interaction with clusterin: not peptide sequence specific
[2]; [8]
  koff: 0.006 ± 0.0002 s⁻¹
  kon: 11200 M⁻¹ s⁻¹
[3]
  interaction with Type II TGF-beta receptor: no significant signal was observed
[4]
  binding to EGFR-ED: do not bind specifically

## CC(C)C[C@H](NC(=O)[C@@H]1CCCN1C(=O)[C@H](CC(C)C)NC(=O)[C@H](C)NC(=O)[C@H](Cc1c[nH]cn1)NC(=O)[C@@H](N)CO)C(=O)N[C@H](C(=O)N[C@@H](Cc1c[nH]c2ccccc12)C(=O)N[C@@H](CO)C(=O)N[C@H](C(=O)N[C@@H](C)C(=O)N[C@@H](C)C(=O)N[C@@H](CO)C(=O)NCC(=O)N[C@@H](CO)C(=O)NCC(=O)N[C@@H](CS)C(=O)O)[C@@H](C)O)[C@@H](C)O [P3376, SHALPLTWSTAA]
[1]
  binding to clusterin by STD-NMR: confirmed
[2]
  sequence dependence of the interaction with clusterin: not peptide sequence specific

## LSLYHTNTQFWQSGSGC (Randomized control for P3375) [P3375R, randomized version of P3375, reference compound]
[2]
  binding of rhCLU to immobilized randomized peptide (Scatchard plot): bound

## CC(C)C[C@H](NC(=O)[C@@H]1CCCN1C(=O)[C@@H](N)Cc1c[nH]cn1)C(=O)N[C@@H](CO)C(=O)N[C@@H](CCCCN)C(=O)N[C@@H](Cc1c[nH]cn1)C(=O)N1CCC[C@H]1C(=O)N[C@@H](Cc1ccc(O)cc1)C(=O)N[C@@H](Cc1c[nH]c2ccccc12)C(=O)N[C@@H](CO)C(=O)N[C@@H](CCC(N)=O)C(=O)N1CCC[C@H]1C(=O)N[C@@H](CO)C(=O)NCC(=O)N[C@@H](CO)C(=O)NCC(=O)N[C@@H](CS)C(=O)O [P3378]
[1]
  binding to clusterin by STD-NMR: direct interaction
[2]
  sequence dependence of the interaction with clusterin: sequence dependent
[2]; [8]
  koff: 0.0052 ± 0.0002 s⁻¹
  kon: 17200 M⁻¹ s⁻¹
[2]; global fit, one-to-one Langmuir binding model, read-out: Kd (global kinetic fit)
  Kd: 300 nM
[3]
  interaction with Type II TGF-beta receptor: no significant signal was observed
[4]
  binding to EGFR-ED: do not bind specifically
[5]; 5 μmoles unlabeled peptide with 25 nmoles P3378-DL680, 15 min post-injection
  blocking of uptake of P3378-DL680 into the tumor by unlabeled peptide: successfully blocked uptake
[6]; 25 nmoles P3378-DL680, 15 min post-injection, liver, spleen, pancreas, kidney, heart, lungs
  detection in the other organs: could not be detected
[7]; co-injection of P3378-Dylight680 and P3378R-Dylight800, 25 nanomoles each i.v.
  AUT/AUN ratio as a function of time: behaviour after the initial accumulation: remains at the tumor site
[7]; co-injection of P3378-Dylight680 and P3378R-Dylight800, 25 nanomoles each i.v., 6 animals
  residence at the tumor site: resided much longer at the tumor site
[7]; co-injection, AUT/AUN ratio
  time post-injection up to which both peptides accumulate at the tumor site at the same rate: ~60 min

## P3378-Alexa680: P3378 peptide labeled with Alexa Fluor 680 C2-maleimide (HPLSKHPYWSQPSGSGC(Alexa Fluor 680 C2‑maleimide))
[7]; 5 or 25 nanomoles i.v., Alexa680 label
  accumulation in the tumor (as well as kidney and bladder): accumulation

## CC(C)C[C@H](NC(=O)[C@H](Cc1ccc(O)cc1)NC(=O)[C@@H]1CCCN1)C(=O)N[C@@H](Cc1c[nH]cn1)C(=O)N[C@@H](CCC(N)=O)C(=O)N[C@@H](CO)C(=O)N1CCC[C@H]1C(=O)N[C@@H](Cc1c[nH]cn1)C(=O)N[C@@H](Cc1c[nH]c2ccccc12)C(=O)N[C@@H](CCCCN)C(=O)N1CCC[C@H]1C(=O)N[C@@H](CO)C(=O)N[C@@H](CO)C(=O)NCC(=O)N[C@@H](CO)C(=O)NCC(=O)N[C@@H](CS)C(=O)O [P3378R, PYLHQSPHWKPSSGSGC, reference compound] (H-PYLHQSPHWKPSSGSGC-OH)
[7]; mouse, in vivo
  accumulation in the kidneys: faster accumulation

## P3378-DL680: P3378 peptide labeled with Dylight680 fluorophor (HPLSKHPYWSQPSGSGC(DyLight 680))
[5]; in the presence of excess scrambled P3378R peptide vs probe alone
  relative concentration of the probe at the tumor site: only slightly affected
[5]; in the presence of excess unlabeled P3378 peptide vs probe alone
  relative concentration of the probe at the tumor site, times lower: 3-4 times
[6]; 25 nmoles, 15 min post-injection, frozen sections
  uptake of the fluorescent probe in the 4T1 tumor: specific uptake and accumulation

## AWHTLASTSLAPSGSGC (Randomized control for P3376) [P3376R, randomized version of P3376, reference compound]
[2]
  binding of rhCLU to immobilized randomized peptide (Scatchard plot): bound
